Structures are written as SMILES. Marks after values point to notes of the source that are not given here.

The first experiment has as its system BRD pathogens, M. haemolytica and P. multocida. Put plainly: In-vitro MIC model, BRD pathogen screening panel. Particulars: Table F, Formula (1-A1a) compounds. Type of experiment: cell-based, Mannheimia haemolytica; Pasteurella multocida.
As for `CCCNC[C@]1(O)[C@H](C)O[C@@H](O[C@H]2[C@H](C)[C@@H](O[C@@H]3O[C@H](C)C[C@H](N(C)C(=O)N(C)c4ccccc4)[C@H]3Oc3cccc(OCC)c3)[C@](C)(O)C[C@@H](C)CN[C@H](C)[C@@H](O)[C@](C)(O)[C@@H](CC)OC(=O)[C@@H]2C)C[C@@]1(C)OC` [Example F-20], the “MIC for at least one BRD strain (asterisk on Ex#)” value is “F-20* (MIC ≤ 64 μg/mL for at least one BRD strain)”.

Still in this experiment, the particulars now being: at least one BRD strain.
For `CCCNC[C@]1(O)[C@H](C)O[C@@H](O[C@H]2[C@H](C)[C@@H](O[C@@H]3O[C@H](C)C[C@H](NC)[C@H]3Oc3cccnc3C)[C@](C)(O)C[C@@H](C)CN[C@H](C)[C@@H](O)[C@](C)(O)[C@@H](CC)OC(=O)[C@@H]2C)C[C@@]1(C)OC` [Example E-44], the “MIC flag at the example number (Table E)” value is “E-44* (MIC ≤ 64 μg/mL for at least one BRD strain)”.

Turning to `CCCNC[C@]1(O)[C@H](C)O[C@@H](O[C@H]2[C@H](C)[C@@H](O[C@@H]3O[C@H](C)C[C@H](N(C)C(=O)N4CCOc5ccccc54)[C@H]3Oc3ccccc3)[C@](C)(O)C[C@@H](C)CN[C@H](C)[C@@H](O)[C@](C)(O)[C@@H](CC)OC(=O)[C@@H]2C)C[C@@]1(C)OC` [Example G-2], the “MIC flag at the example number (Table G)” value was “G-2* (MIC ≤ 64 μg/mL for at least one BRD strain)”.

On to `CC[C@H]1OC(=O)[C@H](C)[C@@H](O[C@H]2C[C@@](C)(OC)[C@@H](O)[C@H](C)O2)[C@H](C)[C@@H](O[C@@H]2O[C@H](C)C[C@H](NC)[C@H]2Oc2ccc3ncccc3c2)[C@](C)(O)C[C@@H](C)CN(C)[C@H](C)[C@@H](O)[C@]1(C)O` [Example A-8], for which the “MIC flag at the example number (Table A)” value is “A-8* (MIC ≤ 64 μg/mL for at least one BRD strain)”.

For `CCCNC[C@]1(O)[C@H](C)O[C@@H](O[C@H]2[C@H](C)[C@@H](O[C@@H]3O[C@H](C)C[C@H](NC)[C@H]3Oc3ccccc3Cl)[C@](C)(O)C[C@@H](C)CN[C@H](C)[C@@H](O)[C@](C)(O)[C@@H](CC)OC(=O)[C@@H]2C)C[C@@]1(C)OC` [Example E-14], the “MIC flag at the example number (Table E)” value is “E-14* (MIC ≤ 64 μg/mL for at least one BRD strain)”.

As for `CCCN(C[C@]1(O)[C@H](C)O[C@@H](O[C@H]2[C@H](C)[C@@H](O[C@@H]3O[C@H](C)C[C@H](NC)[C@H]3Oc3ncc(Cl)cn3)[C@](C)(O)C[C@@H](C)CN[C@H](C)[C@@H](O)[C@](C)(O)[C@@H](CC)OC(=O)[C@@H]2C)C[C@@]1(C)OC)c1ncc(Cl)cn1` [Example E-119], the “MIC flag at the example number (Table E)” value is “E-119* (MIC ≤ 64 μg/mL for at least one BRD strain)”.

As to `CCCNC[C@]1(O)[C@H](C)O[C@@H](O[C@H]2[C@H](C)[C@@H](O[C@@H]3O[C@H](C)C[C@H](N(C)C)[C@H]3Oc3ccccc3C#N)[C@](C)(O)C[C@@H](C)CN[C@H](C)[C@@H](O)[C@](C)(O)[C@@H](CC)OC(=O)[C@@H]2C)C[C@@]1(C)OC` [Example E-105], the “MIC flag at the example number (Table E)” value is reported as “E-105* (MIC ≤ 64 μg/mL for at least one BRD strain)”.

As for `CCCNC[C@]1(O)[C@H](C)O[C@@H](O[C@H]2[C@H](C)[C@@H](O[C@@H]3O[C@H](C)C[C@H](N(C)C)[C@H]3Oc3ccccc3Cl)[C@](C)(O)C[C@@H](C)CN[C@H](C)[C@@H](O)[C@](C)(O)[C@@H](CC)OC(=O)[C@@H]2C)C[C@@]1(C)OC` [Example E-83], the “MIC flag at the example number (Table E)” value was “E-83* (MIC ≤ 64 μg/mL for at least one BRD strain)”.

Consider `CCCNC[C@]1(O)[C@H](C)O[C@@H](O[C@H]2[C@H](C)[C@@H](O[C@@H]3O[C@H](C)C[C@H](NC)[C@H]3Oc3ccc(F)c(C)c3)[C@](C)(O)C[C@@H](C)CN[C@H](C)[C@@H](O)[C@](C)(O)[C@@H](CC)OC(=O)[C@@H]2C)C[C@@]1(C)OC` [Example E-22], for which the “MIC flag at the example number (Table E)” value is “E-22* (MIC ≤ 64 μg/mL for at least one BRD strain)”.

Turning to `CC[C@H]1OC(=O)[C@H](C)[C@@H](O[C@H]2C[C@@](C)(OC)[C@@H](O)[C@H](C)O2)[C@H](C)[C@@H](O[C@@H]2O[C@H](C)C[C@H](N(C)C)[C@H]2Oc2ccc(OC)nc2C)[C@](C)(O)C[C@@H](C)CN(C)[C@H](C)[C@@H](O)[C@]1(C)O` [Example A-38], the “MIC flag at the example number (Table A)” value is reported as “A-38* (MIC ≤ 64 μg/mL for at least one BRD strain)”.

Take `CCCN(C[C@]1(O)[C@H](C)O[C@@H](O[C@H]2[C@H](C)[C@@H](O[C@@H]3O[C@H](C)C[C@H](NC)[C@H]3Oc3ncc(C#N)cn3)[C@](C)(O)C[C@@H](C)CN[C@H](C)[C@@H](O)[C@](C)(O)[C@@H](CC)OC(=O)[C@@H]2C)C[C@@]1(C)OC)c1ncc(C#N)cn1` [Example E-122]: the “MIC flag at the example number (Table E)” value is “E-122* (MIC ≤ 64 μg/mL for at least one BRD strain)”.

On to `CC[C@H]1OC(=O)[C@H](C)[C@@H](O[C@H]2C[C@@](C)(OC)[C@@H](O)[C@H](C)O2)[C@H](C)[C@@H](O[C@@H]2O[C@H](C)C[C@H](N(C)C)[C@H]2Oc2cc(OC)cc(OC)c2)[C@](C)(O)C[C@@H](C)CN(C)[C@H](C)[C@@H](O)[C@]1(C)O` [Example A-48], for which the “MIC flag at the example number (Table A)” value is recorded as “A-48* (MIC ≤ 64 μg/mL for at least one BRD strain)”.

Regarding `CCCNC[C@]1(O)[C@H](C)O[C@@H](O[C@H]2[C@H](C)[C@@H](O[C@@H]3O[C@H](C)C[C@H](NC)[C@H]3Oc3cccnc3OCC)[C@](C)(O)C[C@@H](C)CN[C@H](C)[C@@H](O)[C@](C)(O)[C@@H](CC)OC(=O)[C@@H]2C)C[C@@]1(C)OC` [Example E-59], the “MIC flag at the example number (Table E)” value is reported as “E-59* (MIC ≤ 64 μg/mL for at least one BRD strain)”.

On to `CCCNC[C@]1(O)[C@H](C)O[C@@H](O[C@H]2[C@H](C)[C@@H](O[C@@H]3O[C@H](C)C[C@H](N(C)C)[C@H]3Oc3ccc(OC)cc3OC)[C@](C)(O)C[C@@H](C)CN[C@H](C)[C@@H](O)[C@](C)(O)[C@@H](CC)OC(=O)[C@@H]2C)C[C@@]1(C)OC` [Example E-97], for which the “MIC flag at the example number (Table E)” value is recorded as “E-97* (MIC ≤ 64 μg/mL for at least one BRD strain)”.

In the case of `CCCNC[C@]1(O)[C@H](C)O[C@@H](O[C@H]2[C@H](C)[C@@H](O[C@@H]3O[C@H](C)C[C@H](NC)[C@H]3Oc3ccncc3)[C@](C)(O)C[C@@H](C)CN[C@H](C)[C@@H](O)[C@](C)(O)[C@@H](CC)OC(=O)[C@@H]2C)C[C@@]1(C)OC` [Example E-32], the “MIC flag at the example number (Table E)” value is on record as “E-32* (MIC ≤ 64 μg/mL for at least one BRD strain)”.

As to `CCCNC[C@]1(O)[C@H](C)O[C@@H](O[C@H]2[C@H](C)[C@@H](O[C@@H]3O[C@H](C)C[C@H](N(C)C)[C@H]3Oc3ccc(OC)nc3)[C@](C)(O)C[C@@H](C)CN[C@H](C)[C@@H](O)[C@](C)(O)[C@@H](CC)OC(=O)[C@@H]2C)C[C@@]1(C)OC` [Example E-133], the “MIC flag at the example number (Table E)” value was “E-133* (MIC ≤ 64 μg/mL for at least one BRD strain)”.

With `CCCNC[C@]1(O)[C@H](C)O[C@@H](O[C@H]2[C@H](C)[C@@H](O[C@@H]3O[C@H](C)C[C@H](NC)[C@H]3Oc3ccc(F)cc3F)[C@](C)(O)C[C@@H](C)CN[C@H](C)[C@@H](O)[C@](C)(O)[C@@H](CC)OC(=O)[C@@H]2C)C[C@@]1(C)OC` [Example E-58], the “MIC flag at the example number (Table E)” value is “E-58* (MIC ≤ 64 μg/mL for at least one BRD strain)”.

`CCCNC[C@]1(O)[C@H](C)O[C@@H](O[C@H]2[C@H](C)[C@@H](O[C@@H]3O[C@H](C)C[C@H](NC)[C@H]3Oc3cccc4cc[nH]c34)[C@](C)(O)C[C@@H](C)CN[C@H](C)[C@@H](O)[C@](C)(O)[C@@H](CC)OC(=O)[C@@H]2C)C[C@@]1(C)OC` [Example E-65]: the “MIC flag at the example number (Table E)” value is “E-65* (MIC ≤ 64 μg/mL for at least one BRD strain)”.
